Assay results from ChEMBL document CHEMBL3046819, “Synthesis and antimicrobial activity of new pyridine derivatives-I” (2011).

Columns and labels:
Type in all cases: functional
Conditions in all cases: read-out: IZ
Bacillus subtilis [1] = assay: Antibacterial activity against Bacillus subtilis ATCC 6633 at 100 ug/ml by cup-plate method
Pseudomonas aeruginosa [2] = assay: Antibacterial activity against Pseudomonas aeruginosa ATCC 9027 at 200 ug/ml by cup-plate method
Staphylococcus aureus [3] = assay: Antibacterial activity against Staphylococcus aureus ATCC 9144 at 100 ug/ml by cup-plate method
Candida albicans [4] = assay: Antifungal activity against Candida albicans ATCC 10231 at 200 ug/ml by cup-plate method
Staphylococcus aureus [5] = assay: Antibacterial activity against Staphylococcus aureus ATCC 9144 at 200 ug/ml by cup-plate method
Escherichia coli [6] = assay: Antibacterial activity against Escherichia coli ATCC 25922 at 200 ug/ml by cup-plate method
Escherichia coli [7] = assay: Antibacterial activity against Escherichia coli ATCC 25922 at 100 ug/ml by cup-plate method
Pseudomonas aeruginosa [8] = assay: Antibacterial activity against Pseudomonas aeruginosa ATCC 9027 at 100 ug/ml by cup-plate method
Bacillus subtilis [9] = assay: Antibacterial activity against Bacillus subtilis ATCC 6633 at 200 ug/ml by cup-plate method
Candida albicans [10] = assay: Antifungal activity against Candida albicans ATCC 10231 at 100 ug/ml by cup-plate method

SMILES	zone of inhibition at 100 µg/mL (Bacillus subtilis [1]) [mm]	zone of inhibition at 200 µg/mL (Pseudomonas aeruginosa [2]) [mm]	zone of inhibition at 100 µg/mL (Staphylococcus aureus [3]) [mm]	zone of inhibition at 200 µg/mL (Candida albicans [4]) [mm]	zone of inhibition at 200 µg/mL (Staphylococcus aureus [5]) [mm]	zone of inhibition at 200 µg/mL (Escherichia coli [6]) [mm]	zone of inhibition at 100 µg/mL (Escherichia coli [7]) [mm]	zone of inhibition at 100 µg/mL (Pseudomonas aeruginosa [8]) [mm]	zone of inhibition at 200 µg/mL (Bacillus subtilis [9]) [mm]	zone of inhibition at 100 µg/mL (Candida albicans [10]) [mm]
O=C(c1cccnc1Nc1nc2cc([N+](=O)[O-])ccc2s1)N1CCN(CCO)CC1	8	7	6	4	11	8	4	7	8	2
O=C(c1cccnc1Nc1nc2c(Cl)cccc2s1)N1CCN(CCO)CC1	7	9	7	6	7	9	6	7	8	3
O=C(c1cccnc1Nc1nc2ccc(Cl)cc2s1)N1CCN(CCO)CC1	7	10	8	1	9	10	6	7	9	0
O=C(c1cccnc1Nc1nc2ccccc2s1)N1CCN(CCO)CC1	6	9	6	5	7	8	7	8	10	3
O=C(c1cccnc1Nc1nc2c([N+](=O)[O-])cccc2s1)N1CCNC(Cl)C1Cl (stereo not given)	5	9	8	4	10	10	9	8	10	2
C[C@@H]1[C@H](O)[C@@H](C)/C=C/C=C/C=C/C=C/C=C/C=C/C=C/[C@H](O[C@@H]2O[C@H](C)[C@@H](O)[C@H](N)[C@@H]2O)C[C@@H]2O[C@](O)(C[C@@H](O)C[C@@H](O)[C@H](O)CC[C@@H](O)C[C@@H](O)CC(=O)O[C@H]1C)C[C@H](O)[C@H]2C(=O)O [AMPHOTERICIN B]	–	–	–	18	–	–	–	–	–	8
COc1cccc2sc(Nc3ncccc3C(=O)N3CCN(CCO)CC3)nc12	6	9	6	4	8	3	3	7	10	4
CC1(C)S[C@@H]2[C@H](NC(=O)[C@H](N)c3ccccc3)C(=O)N2[C@H]1C(=O)O [AMPICILLIN]	17	31	15	–	28	30	18	18	30	–
O=C(c1cccnc1Nc1nc2cc(Cl)ccc2s1)N1CCN(CCO)CC1	5	3	0	4	0	5	5	0	5	3
Cc1cccc2sc(Nc3ncccc3C(=O)N3CCNC(Cl)C3Cl)nc12 (stereo not given)	4	7	4	0	6	10	8	6	4	0
Cc1cccc2sc(Nc3ncccc3C(=O)N3CCN(CCO)CC3)nc12	7	7	4	0	5	7	3	6	10	0
COc1ccc2nc(Nc3ncccc3C(=O)N3CCN(CCO)CC3)sc2c1	0	5	8	5	9	8	8	4	4	0
O=C(c1cccnc1Nc1nc2cc(Cl)ccc2s1)N1CCNC(Cl)C1Cl (stereo not given)	5	2	0	2	0	3	2	0	5	1
Cc1ccc2nc(Nc3ncccc3C(=O)N3CCN(CCO)CC3)sc2c1	0	0	0	5	3	6	0	0	0	2
CC1(C)S[C@@H]2[C@H](NC(=O)Cc3ccccc3)C(=O)N2[C@H]1C(=O)O [PENICILLIN G]	14	22	12	–	21	25	14	13	25	–
CC1(C)S[C@@H]2[C@H](NC(=O)[C@H](N)c3ccc(O)cc3)C(=O)N2[C@H]1C(=O)O [AMOXICILLIN]	16	27	13	–	24	28	16	15	29	–
O=C(c1cccnc1Nc1nc2ccccc2s1)N1CCNC(Cl)C1Cl (stereo not given)	6	5	5	5	7	8	7	4	7	3
Cc1ccc2sc(Nc3ncccc3C(=O)N3CCNC(Cl)C3Cl)nc2c1 (stereo not given)	7	8	8	3	10	7	5	6	7	2
O=C(c1cccnc1Nc1nc2cc([N+](=O)[O-])ccc2s1)N1CCNC(Cl)C1Cl (stereo not given)	8	6	6	4	9	5	4	5	7	1
Cc1ccc2nc(Nc3ncccc3C(=O)N3CCNC(Cl)C3Cl)sc2c1 (stereo not given)	0	0	3	5	4	3	3	0	0	2
COc1cccc2sc(Nc3ncccc3C(=O)N3CCNC(Cl)C3Cl)nc12 (stereo not given)	8	8	6	4	6	4	0	7	9	3
COc1ccc2nc(Nc3ncccc3C(=O)N3CCNC(Cl)C3Cl)sc2c1 (stereo not given)	–	7	5	6	6	9	8	4	2	4
